Biological target: T1, Clostridium hystolyticum collagenase (EC.3.4.23.3)
T1 construct: gene colH
Experiment: FALGPA hydrolysis, absorbance at […] nm
Format: biochemical, Hathewaya histolytica
Details: FALGPA substrate (2 mM stock), 50 mM Tricine, 10 mM CaCl2, 400 mM NaCl, pH 7.5, 15 min preincubation

`O=C(O[C@@H]1Cc2c(O)cc(O)cc2O[C@@H]1c1cc(O)c(O)c(O)c1)c1cc(O)c(O)c(O)c1` [EGCG] showed an IC50 of 9.45 ± 0.5 µM.
